{"source": "patent US9200008B2", "about": "(ASKA PHARMACEUTICAL CO., LTD., priority 2010, dated 2015)"}
{"tested_on": "Human prostate cancer cell lines (PC-3 cells)", "assay": "Measurement of cell death-inducing activity (Test Example 1)", "format": "cell-based", "conditions": "PC-3, 48 h, 48 hours after addition, tested at 10, 1, 0.1, 0.025 and 0.00625 μmol/L, qualitative evaluation of 10 fields, read-out: Concentration showing the cell death-inducing activity (cell death-inducing rate not less than 40%)", "method_in_brief": "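PC-3 cells seeded at 1×10^5 cells/well and grown 48 h at 37 °C, 5% CO2, then exposed to compound at 10, 1, 0.1, 0.025 and 0.00625 μmol/L (DMSO control) for a further 48 h. Activity was called where cell death-inducing rate was not less than 40%.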", "units": {"minimal effective concentration": "µM"}}
{"compound": "CCn1nc(-c2ccc(F)cc2OC)cc1NC(=O)OCc1ccc2c(c1)ncn2C", "note": "[Example 9-218]", "minimal effective concentration": 0.025}
{"compound": "CCn1cnc2cc(COC(=O)Nc3cc(-c4ccc(F)cc4OC)nn3C)ccc21", "note": "[Example 9-219]", "minimal effective concentration": 0.025}
{"compound": "CCn1nc(-c2ccc(F)cc2OC)cc1NC(=O)OCc1ccc2c(c1)ncn2CC", "note": "[Example 9-220]", "minimal effective concentration": 0.1}
{"compound": "COc1cc(Cl)ccc1-c1cc(NC(=O)OCc2ccc3c(c2)ncn3C)n(C)n1", "note": "[Example 9-221]", "minimal effective concentration": 0.00625}
{"compound": "CCn1nc(-c2ccc(Cl)cc2OC)cc1NC(=O)OCc1ccc2c(c1)ncn2C", "note": "[Example 9-222]", "minimal effective concentration": 0.00625}
{"compound": "CCn1cnc2cc(COC(=O)Nc3cc(-c4ccc(Cl)cc4OC)nn3C)ccc21", "note": "[Example 9-223]", "minimal effective concentration": 0.00625}
{"compound": "CCn1nc(-c2ccc(Cl)cc2OC)cc1NC(=O)OCc1ccc2c(c1)ncn2CC", "note": "[Example 9-224]", "minimal effective concentration": 0.00625}
{"compound": "COc1cc(C)ccc1-c1cc(NC(=O)OCc2ccc3c(c2)ncn3C)n(C)n1", "note": "[Example 9-226]", "minimal effective concentration": 0.00625}
{"compound": "CCn1nc(-c2ccc(C)cc2OC)cc1NC(=O)OCc1ccc2c(c1)ncn2C", "note": "[Example 9-227]", "minimal effective concentration": 0.00625}
{"compound": "CCn1cnc2cc(COC(=O)Nc3cc(-c4ccc(C)cc4OC)nn3C)ccc21", "note": "[Example 9-228]", "minimal effective concentration": 0.00625}
{"compound": "CCn1nc(-c2ccc(C)cc2OC)cc1NC(=O)OCc1ccc2c(c1)ncn2CC", "note": "[Example 9-229]", "minimal effective concentration": 0.025}
{"compound": "COc1ccc(-c2cc(NC(=O)OCc3ccc4c(c3)ncn4C)n(C)n2)c(OC)c1", "note": "[Example 9-230]", "minimal effective concentration": 0.025}
{"compound": "COc1ccc(-c2cc(NC(=O)OCc3ccc4c(c3)ncn4C)n(C)n2)cc1OC", "note": "[Example 9-231]", "minimal effective concentration": 1}
{"compound": "Cc1ccc(-c2cc(NC(=O)OCc3ccc4c(c3)ncn4C)n(C)n2)c(C)c1", "note": "[Example 9-233]", "minimal effective concentration": 0.00625}
{"compound": "CCn1nc(-c2ccc(C)cc2C)cc1NC(=O)OCc1ccc2c(c1)ncn2C", "note": "[Example 9-234]", "minimal effective concentration": 0.025}
{"compound": "CCn1cnc2cc(COC(=O)Nc3cc(-c4ccc(C)cc4C)nn3C)ccc21", "note": "[Example 9-235]", "minimal effective concentration": 0.00625}
{"compound": "CCn1nc(-c2ccc(C)cc2C)cc1NC(=O)OCc1ccc2c(c1)ncn2CC", "note": "[Example 9-236]", "minimal effective concentration": 0.1}
{"compound": "Cc1ccccc1-c1cc(NC(=O)OCc2ccc3c(c2)nc(C)n3C)n(C)n1", "note": "[Example 9-238]", "minimal effective concentration": 10}
{"compound": "COc1cc(Cl)ccc1-c1cc(NC(=O)OCc2ccc3c(c2)nc(C)n3C)n(C)n1", "note": "[Example 9-239]", "minimal effective concentration": 0.025}
{"compound": "CCn1nc(-c2ccc(C)cc2C)cc1NC(=O)OCc1ccc2c(c1)nc(C)n2C", "note": "[Example 9-240]", "minimal effective concentration": 1}
{"compound": "CCc1nc2cc(COC(=O)Nc3cc(-c4ccc(Cl)cc4Cl)nn3C)ccc2n1C", "note": "[Example 9-241]", "minimal effective concentration": 10}
{"compound": "CCc1nc2cc(COC(=O)Nc3cc(-c4ccc(Cl)cc4OC)nn3C)ccc2n1C", "note": "[Example 9-242]", "minimal effective concentration": 0.1}
{"compound": "COc1ccccc1-c1cc(NC(=O)OCc2ccc3c(c2)nc2n3CCOC2)n(C)n1", "note": "[Example 9-243]", "minimal effective concentration": 0.1}
{"compound": "CCn1nc(-c2ccccc2OC)cc1NC(=O)OCc1ccc2c(c1)nc1n2CCOC1", "note": "[Example 9-244]", "minimal effective concentration": 1}
{"compound": "COc1cc(F)ccc1-c1cc(NC(=O)OCc2ccc3c(c2)nc2n3CCOC2)n(C)n1", "note": "[Example 9-245]", "minimal effective concentration": 0.025}
{"compound": "CCn1nc(-c2ccc(F)cc2OC)cc1NC(=O)OCc1ccc2c(c1)nc1n2CCOC1", "note": "[Example 9-246]", "minimal effective concentration": 0.1}
{"compound": "COc1cc(Cl)ccc1-c1cc(NC(=O)OCc2ccc3c(c2)nc2n3CCOC2)n(C)n1", "note": "[Example 9-247]", "minimal effective concentration": 0.00625}
{"compound": "CCn1nc(-c2ccc(Cl)cc2OC)cc1NC(=O)OCc1ccc2c(c1)nc1n2CCOC1", "note": "[Example 9-248]", "minimal effective concentration": 0.025}
{"compound": "COc1cc(C)ccc1-c1cc(NC(=O)OCc2ccc3c(c2)nc2n3CCOC2)n(C)n1", "note": "[Example 9-249]", "minimal effective concentration": 0.00625}
{"compound": "CCn1nc(-c2ccc(C)cc2OC)cc1NC(=O)OCc1ccc2c(c1)nc1n2CCOC1", "note": "[Example 9-250]", "minimal effective concentration": 0.025}
{"compound": "Cc1ccc(-c2cc(NC(=O)OCc3ccc4c(c3)nc3n4CCOC3)n(C)n2)c(C)c1", "note": "[Example 9-251]", "minimal effective concentration": 0.025}
{"compound": "CCn1nc(-c2ccc(C)cc2C)cc1NC(=O)OCc1ccc2c(c1)nc1n2CCOC1", "note": "[Example 9-252]", "minimal effective concentration": 0.1}
{"compound": "Cc1cc(F)ccc1-c1cc(NC(=O)OCc2ccc3c(c2)nc2n3CCOC2)n(C)n1", "note": "[Example 9-253]", "minimal effective concentration": 0.1}
{"compound": "COc1ccccc1-c1cc(NC(=O)OCc2ccc3c(c2)nc2n3CCC2)n(C)n1", "note": "[Example 9-254]", "minimal effective concentration": 1}
{"compound": "CCn1nc(-c2ccccc2OC)cc1NC(=O)OCc1ccc2c(c1)nc1n2CCC1", "note": "[Example 9-255]", "minimal effective concentration": 1}
{"compound": "COc1cc(F)ccc1-c1cc(NC(=O)OCc2ccc3c(c2)nc2n3CCC2)n(C)n1", "note": "[Example 9-256]", "minimal effective concentration": 0.1}
{"compound": "CCn1nc(-c2ccc(F)cc2OC)cc1NC(=O)OCc1ccc2c(c1)nc1n2CCC1", "note": "[Example 9-257]", "minimal effective concentration": 0.1}
{"compound": "COc1cc(Cl)ccc1-c1cc(NC(=O)OCc2ccc3c(c2)nc2n3CCC2)n(C)n1", "note": "[Example 9-258]", "minimal effective concentration": 0.025}
{"compound": "CCn1nc(-c2ccc(Cl)cc2OC)cc1NC(=O)OCc1ccc2c(c1)nc1n2CCC1", "note": "[Example 9-259]", "minimal effective concentration": 0.025}
{"compound": "Cc1ccc(-c2cc(NC(=O)OCc3ccc4c(c3)nc3n4CCC3)n(C)n2)c(C)c1", "note": "[Example 9-260]", "minimal effective concentration": 0.025}
{"compound": "COc1cc(C)ccc1-c1cc(NC(=O)OCc2ccc3c(c2)nc2n3CCC2)n(C)n1", "note": "[Example 9-261]", "minimal effective concentration": 0.025}
{"compound": "CCn1nc(-c2ccc(C)cc2OC)cc1NC(=O)OCc1ccc2c(c1)nc1n2CCC1", "note": "[Example 9-262]", "minimal effective concentration": 0.025}
{"compound": "COc1ccccc1-c1cc(NC(=O)OCc2ccc3c(c2)nc2n3CCCC2)n(C)n1", "note": "[Example 9-263]", "minimal effective concentration": 1}
{"compound": "CCn1nc(-c2ccccc2OC)cc1NC(=O)OCc1ccc2c(c1)nc1n2CCCC1", "note": "[Example 9-264]", "minimal effective concentration": 1}
{"compound": "COc1cc(F)ccc1-c1cc(NC(=O)OCc2ccc3c(c2)nc2n3CCCC2)n(C)n1", "note": "[Example 9-265]", "minimal effective concentration": 1}
{"compound": "CCn1nc(-c2ccc(F)cc2OC)cc1NC(=O)OCc1ccc2c(c1)nc1n2CCCC1", "note": "[Example 9-266]", "minimal effective concentration": 1}
{"compound": "COc1cc(Cl)ccc1-c1cc(NC(=O)OCc2ccc3c(c2)nc2n3CCCC2)n(C)n1", "note": "[Example 9-267]", "minimal effective concentration": 0.025}
{"compound": "CCn1nc(-c2ccc(Cl)cc2OC)cc1NC(=O)OCc1ccc2c(c1)nc1n2CCCC1", "note": "[Example 9-268]", "minimal effective concentration": 0.1}
{"compound": "COc1cc(C)ccc1-c1cc(NC(=O)OCc2ccc3c(c2)nc2n3CCCC2)n(C)n1", "note": "[Example 9-269]", "minimal effective concentration": 0.1}
{"compound": "CCn1nc(-c2ccc(C)cc2OC)cc1NC(=O)OCc1ccc2c(c1)nc1n2CCCC1", "note": "[Example 9-270]", "minimal effective concentration": 0.1}
{"compound": "Cc1ccc(-c2cc(NC(=O)OCc3ccc4c(c3)nc3n4CCCC3)n(C)n2)c(C)c1", "note": "[Example 9-271]", "minimal effective concentration": 0.1}
{"compound": "COCCn1cnc2cc(COC(=O)Nc3cc(-c4ccc(Cl)cc4OC)nn3C)ccc21", "note": "[Example 9-273]", "minimal effective concentration": 10}
{"compound": "COCc1nc2cc(COC(=O)Nc3cc(-c4ccc(Cl)cc4OC)nn3C)ccc2n1C", "note": "[Example 9-274]", "minimal effective concentration": 1}
{"compound": "Cn1nc(-c2ccc(Cl)cc2Cl)cc1NC(=O)OCc1ccc2c(cnn2C)c1", "note": "[Example 9-275]", "minimal effective concentration": 1}
{"compound": "CCn1nc(-c2ccc(Cl)cc2Cl)cc1NC(=O)OCc1ccc2c(cnn2C)c1", "note": "[Example 9-276]", "minimal effective concentration": 1}
{"compound": "Cc1ccccc1-c1cc(NC(=O)OCc2ccc3c(cnn3C)c2)n(C)n1", "note": "[Example 9-277]", "minimal effective concentration": 10}
{"compound": "Cn1nc(-c2ccccc2C(F)(F)F)cc1NC(=O)OCc1ccc2c(cnn2C)c1", "note": "[Example 9-278]", "minimal effective concentration": 10}
{"compound": "CCn1nc(-c2ccc(F)cc2OC)cc1NC(=O)OCc1ccc2c(cnn2C)c1", "note": "[Example 9-279]", "minimal effective concentration": 1}
{"compound": "COc1cc(Cl)ccc1-c1cc(NC(=O)OCc2ccc3c(cnn3C)c2)n(C)n1", "note": "[Example 9-280]", "minimal effective concentration": 0.00625}
{"compound": "CCn1nc(-c2ccc(Cl)cc2OC)cc1NC(=O)OCc1ccc2c(cnn2C)c1", "note": "[Example 9-281]", "minimal effective concentration": 0.025}
{"compound": "COc1cc(C)ccc1-c1cc(NC(=O)OCc2ccc3c(cnn3C)c2)n(C)n1", "note": "[Example 9-283]", "minimal effective concentration": 0.025}
{"compound": "CCn1nc(-c2ccc(C)cc2OC)cc1NC(=O)OCc1ccc2c(cnn2C)c1", "note": "[Example 9-284]", "minimal effective concentration": 0.1}
{"compound": "Cc1ccc(-c2cc(NC(=O)OCc3ccc4c(cnn4C)c3)n(C)n2)c(C)c1", "note": "[Example 9-285]", "minimal effective concentration": 0.1}
{"compound": "CCn1nc(-c2ccc(C)cc2C)cc1NC(=O)OCc1ccc2c(cnn2C)c1", "note": "[Example 9-286]", "minimal effective concentration": 0.1}
{"compound": "COc1ccccc1-c1cc(NC(=O)OCc2ccc3nn(C)cc3c2)n(C)n1", "note": "[Example 9-288]", "minimal effective concentration": 1}
{"compound": "CCn1nc(-c2ccccc2OC)cc1NC(=O)OCc1ccc2nn(C)cc2c1", "note": "[Example 9-289]", "minimal effective concentration": 1}
{"compound": "COc1cc(F)ccc1-c1cc(NC(=O)OCc2ccc3nn(C)cc3c2)n(C)n1", "note": "[Example 9-290]", "minimal effective concentration": 0.1}
{"compound": "COc1cc(Cl)ccc1-c1cc(NC(=O)OCc2ccc3nn(C)cc3c2)n(C)n1", "note": "[Example 9-291]", "minimal effective concentration": 0.025}
{"compound": "CCn1nc(-c2ccc(Cl)cc2OC)cc1NC(=O)OCc1ccc2nn(C)cc2c1", "note": "[Example 9-292]", "minimal effective concentration": 0.025}
{"compound": "COc1cc(C)ccc1-c1cc(NC(=O)OCc2ccc3nn(C)cc3c2)n(C)n1", "note": "[Example 9-293]", "minimal effective concentration": 0.1}
{"compound": "COc1ccc(-c2cc(NC(=O)OCc3ccc4nn(C)cc4c3)n(C)n2)c(OC)c1", "note": "[Example 9-294]", "minimal effective concentration": 1}
{"compound": "Cc1ccc(-c2cc(NC(=O)OCc3ccc4nn(C)cc4c3)n(C)n2)c(C)c1", "note": "[Example 9-295]", "minimal effective concentration": 0.1}
